Tests used:
Assay type in all cases: in vivo, Balb/C mice
[1] = tested on: KHJJ adenocarcinoma tumor; experiment: Tumor targeting, first study: antibody complexed with L-benzyl-EDTA-111In, 24 h biodistribution
Description: (§1) This example examines the targeting of ^111 In in animal tumors, according to the method of the invention. Balb/C mice were prepared with a KHJJ adenocarcinoma tumor implants in the flank. A hybridoma cell line designated CHA255 specific against L-benzyl-EDTA-In was prepared by methods similar to those described in Example II, using as an immunogen, an L-benzyl-EDTA-In (para-nitrophenolbenzyl-EDTA-In) group derivatized in KLH.
In a first study, a group of three mice were initially injected with 100 ug (about 0.7 nmole) of the CHA255 antibody complexed with L-benzyl-EDTA-^111 In compound. Twenty four hours later, the animals were sacrificed, and examined for ^111 In levels in the blood, tumor, and several organs which are listed in Table 3A. The radioactivity levels were calculated in terms of percent of total radioactivity per gram tissue. The average of values obtained for three mice, and standard deviations, are given to the middle column in Table 2A. Tumor/organ (T/O) ratios are shown at the right the table.

[2] = tested on: KHJJ adenocarcinoma tumor; experiment: Tumor targeting, second study: antibody 23 h prior to hapten, 1 h post hapten biodistribution
Description: as §1
In a second study, the antibody alone was administered to each of three animals, and allowed to localize for 23 hours, at which time the L-benzyl-EDTA-^111 In compound was administered. One hour later the animals were sacrificed and again examined for radioactivity levels.

[3] = tested on: KHJJ adenocarcinoma tumor; experiment: Tumor targeting, third study: antibody, clearing agent, then hapten; 3 h post hapten biodistribution
Description: as §1
A third study examined the degree of tumor localization achievable by an antibody, antibody clearance, and compound administration regimen carried out in accordance with the invention. The CHA255 antibody was administered to each of three animals and allowed to localize for 24 hours, at which time the antibody was cleared from the bloodstream by administration of a clearing agent consisting of transferring derivatized with L-benzyl-EDTA-In. One hour later, the L-benzyl-EDTA-^111 In compound was administered, and the animals sacrificed after an additional three hours.

O=C([O-])CN(CC(=O)[O-])CC(Cc1ccccc1)N(CC(=O)[O-])CC(=O)[O-].[111In+3] [L-benzyl-EDTA-^111 In]
radioactivity remaining in blood and localized in tumor (in words) ([1]; 24 hours, Table 2A): a large percentage of radioactivity remained in the blood, although high amounts were also tumor-localized
24 Hr Conc, Blood ([1]; Hapten-Ab complex (CHA255), 24 h, blood): 13.41 ± 1.48 %/gm
24 Hr Conc, Bone ([1]; Hapten-Ab complex (CHA255), 24 h, bone): 1.42 ± 0.22 %/gm
24 Hr Conc, Gut ([1]; Hapten-Ab complex (CHA255), 24 h, gut): 2.07 ± 1.42 %/gm
24 Hr Conc, Heart ([1]; Hapten-Ab complex (CHA255), 24 h, heart): 3.23 ± 0.48 %/gm
24 Hr Conc, Kidneys ([1]; Hapten-Ab complex (CHA255), 24 h, kidneys): 3.73 ± 0.81 %/gm
24 Hr Conc, Liver ([1]; Hapten-Ab complex (CHA255), 24 h, liver): 5.76 ± 0.86 %/gm
24 Hr Conc, Lungs ([1]; Hapten-Ab complex (CHA255), 24 h, lungs): 6.50 ± 0.91 %/gm
24 Hr Conc, Muscle ([1]; Hapten-Ab complex (CHA255), 24 h, muscle): 1.18 ± 0.16 %/gm
24 Hr Conc, Skin ([1]; Hapten-Ab complex (CHA255), 24 h, skin): 2.35 ± 1.19 %/gm
24 Hr Conc, Spleen ([1]; Hapten-Ab complex (CHA255), 24 h, spleen): 2.50 ± 0.37 %/gm
24 Hr Conc, Tumor ([1]; Hapten-Ab complex (CHA255), 24 h, tumor): 11.26 ± 1.40 %/gm
T/O Ratio, Blood ([1]; Hapten-Ab complex, 24 h, tumor/blood): 0.8
T/O Ratio, Bone ([1]; Hapten-Ab complex, 24 h, tumor/bone): 8.0
T/O Ratio, Gut ([1]; Hapten-Ab complex, 24 h, tumor/gut): 7.4
T/O Ratio, Heart ([1]; Hapten-Ab complex, 24 h, tumor/heart): 3.5
T/O Ratio, Kidneys ([1]; Hapten-Ab complex, 24 h, tumor/kidneys): 3.1
T/O Ratio, Liver ([1]; Hapten-Ab complex, 24 h, tumor/liver): 2.0
T/O Ratio, Lungs ([1]; Hapten-Ab complex, 24 h, tumor/lungs): 1.7
T/O Ratio, Muscle ([1]; Hapten-Ab complex, 24 h, tumor/muscle): 9.6
T/O Ratio, Skin ([1]; Hapten-Ab complex, 24 h, tumor/skin): 5.7
T/O Ratio, Spleen ([1]; Hapten-Ab complex, 24 h, tumor/spleen): 4.5
Conc 1 Hr Post Hapten, Blood ([2]; Ab 23 Hr prior to hapten, 1 h, blood): 24.01 ± 0.80 %/gm
Conc 1 Hr Post Hapten, Bone ([2]; Ab 23 Hr prior to hapten, 1 h, bone): 1.57 ± 0.09 %/gm
Conc 1 Hr Post Hapten, Gut ([2]; Ab 23 Hr prior to hapten, 1 h, gut): 1.51 ± 0.19 %/gm
Conc 1 Hr Post Hapten, Heart ([2]; Ab 23 Hr prior to hapten, 1 h, heart): 5.40 ± 0.49 %/gm
Conc 1 Hr Post Hapten, Kidneys ([2]; Ab 23 Hr prior to hapten, 1 h, kidneys): 5.87 ± 0.81 %/gm
Conc 1 Hr Post Hapten, Liver ([2]; Ab 23 Hr prior to hapten, 1 h, liver): 6.35 ± 0.50 %/gm
Conc 1 Hr Post Hapten, Lungs ([2]; Ab 23 Hr prior to hapten, 1 h, lungs): 9.72 ± 0.24 %/gm
Conc 1 Hr Post Hapten, Muscle ([2]; Ab 23 Hr prior to hapten, 1 h, muscle): 1.44 ± 0.16 %/gm
Conc 1 Hr Post Hapten, Skin ([2]; Ab 23 Hr prior to hapten, 1 h, skin): 1.60 ± 0.20 %/gm
Conc 1 Hr Post Hapten, Spleen ([2]; Ab 23 Hr prior to hapten, 1 h, spleen): 3.03 ± 0.27 %/gm
Conc 1 Hr Post Hapten, Tumor ([2]; Ab 23 Hr prior to hapten, 1 h, tumor): 4.08 ± 0.51 %/gm
T/O Ratio, Blood ([2]; Ab 23 Hr prior to hapten, 1 h, tumor/blood): 0.17
T/O Ratio, Bone ([2]; Ab 23 Hr prior to hapten, 1 h, tumor/bone): 2.59
T/O Ratio, Gut ([2]; Ab 23 Hr prior to hapten, 1 h, tumor/gut): 2.73
T/O Ratio, Heart ([2]; Ab 23 Hr prior to hapten, 1 h, tumor/heart): 0.76
T/O Ratio, Kidneys ([2]; Ab 23 Hr prior to hapten, 1 h, tumor/kidneys): 0.70
T/O Ratio, Liver ([2]; Ab 23 Hr prior to hapten, 1 h, tumor/liver): 0.64
T/O Ratio, Lungs ([2]; Ab 23 Hr prior to hapten, 1 h, tumor/lungs): 0.42
T/O Ratio, Muscle ([2]; Ab 23 Hr prior to hapten, 1 h, tumor/muscle): 2.84
T/O Ratio, Skin ([2]; Ab 23 Hr prior to hapten, 1 h, tumor/skin): 2.57
T/O Ratio, Spleen ([2]; Ab 23 Hr prior to hapten, 1 h, tumor/spleen): 1.36
tumor uptake and tumor/organ uptake ratios (in words) ([2]; compared with coadministration of antibody and In compound): lower levels of tumor uptake and lower tumor/organ uptake ratios
Conc 3 Hrs Post Hapten, Blood ([3]; Ab 25 Hr, blocking agent 1 Hr prior to hapten, 3 h, blood): 0.95 ± 0.44 %/gm
Conc 3 Hrs Post Hapten, Bone ([3]; Ab 25 Hr, blocking agent 1 Hr prior to hapten, 3 h, bone): 1.50 ± 0.37 %/gm
Conc 3 Hrs Post Hapten, Gut ([3]; Ab 25 Hr, blocking agent 1 Hr prior to hapten, 3 h, gut): 2.66 ± 0.61 %/gm
Conc 3 Hrs Post Hapten, Heart ([3]; Ab 25 Hr, blocking agent 1 Hr prior to hapten, 3 h, heart): 0.92 ± 0.29 %/gm
Conc 3 Hrs Post Hapten, Kidneys ([3]; Ab 25 Hr, blocking agent 1 Hr prior to hapten, 3 h, kidneys): 1.10 ± 0.16 %/gm
Conc 3 Hrs Post Hapten, Liver ([3]; Ab 25 Hr, blocking agent 1 Hr prior to hapten, 3 h, liver): 0.87 ± 0.39 %/gm
Conc 3 Hrs Post Hapten, Lungs ([3]; Ab 25 Hr, blocking agent 1 Hr prior to hapten, 3 h, lungs): 2.55 ± 0.24 %/gm
Conc 3 Hrs Post Hapten, Muscle ([3]; Ab 25 Hr, blocking agent 1 Hr prior to hapten, 3 h, muscle): 3.48 ± 0.77 %/gm
Conc 3 Hrs Post Hapten, Skin ([3]; Ab 25 Hr, blocking agent 1 Hr prior to hapten, 3 h, skin): 4.86 ± 0.45 %/gm
Conc 3 Hrs Post Hapten, Spleen ([3]; Ab 25 Hr, blocking agent 1 Hr prior to hapten, 3 h, spleen): 0.21 ± 0.04 %/gm
Conc 3 Hrs Post Hapten, Tumor ([3]; Ab 25 Hr, blocking agent 1 Hr prior to hapten, 3 h, tumor): 7.72 ± 1.35 %/gm
In levels in blood and internal organs relative to tumor (in words) ([3]; after clearing agent): In levels in the blood and internal organs was greatly reduced relative to the levels concentrated in the tumor
T/O Ratio, Blood ([3]; blocking agent 1 Hr prior to hapten, 3 h, tumor/blood): 9.20
T/O Ratio, Bone ([3]; blocking agent 1 Hr prior to hapten, 3 h, tumor/bone): 5.40
T/O Ratio, Gut ([3]; blocking agent 1 Hr prior to hapten, 3 h, tumor/gut): 2.97
T/O Ratio, Heart ([3]; blocking agent 1 Hr prior to hapten, 3 h, tumor/heart): 8.71
T/O Ratio, Kidneys ([3]; blocking agent 1 Hr prior to hapten, 3 h, tumor/kidneys): 7.04
T/O Ratio, Liver ([3]; blocking agent 1 Hr prior to hapten, 3 h, tumor/liver): 10.21
T/O Ratio, Lungs ([3]; blocking agent 1 Hr prior to hapten, 3 h, tumor/lungs): 3.02
T/O Ratio, Muscle ([3]; blocking agent 1 Hr prior to hapten, 3 h, tumor/muscle): 2.33
T/O Ratio, Skin ([3]; blocking agent 1 Hr prior to hapten, 3 h, tumor/skin): 1.61
T/O Ratio, Spleen ([3]; blocking agent 1 Hr prior to hapten, 3 h, tumor/spleen): 38.03
